Results: ChEMBL document CHEMBL3885881, “DrugMatrix”

Species: Rattus norvegicus
Test: DrugMatrix - Regimen: Daily Repeat
Assay type: toxicity, organism-based, Sprague-Dawley
Parameters: regimen Daily Repeat, gender Male, age 6-8 weeks
Conditions: in vivo, po, route oral GAVAGE, […]; for ABSOLUTE BASOPHIL / ABSOLUTE EOSINOPHIL / ABSOLUTE LYMPHOCYTE / ABSOLUTE MONOCYTE / ABSOLUTE SEGMENTED NEUTROPHIL / BASOPHIL / EOSINOPHIL / ERYTHROCYTE COUNT / HEMATOCRIT / HEMOGLOBIN / LEUKOCYTE COUNT / LYMPHOCYTE / MEAN CORPUSCULAR HEMOGLOBIN / MEAN CORPUSCULAR HEMOGLOBIN CONCENTRATION / MEAN CORPUSCULAR VOLUME / MONOCYTE / NEUTROPHIL / NUCLEATED RED BLOOD CELLS / PLATELET COUNT: tissue Blood; for ALANINE AMINOTRANSFERASE / ALBUMIN / ALKALINE PHOSPHATASE / ASPARTATE AMINOTRANSFERASE / BLOOD UREA NITROGEN / CARBON DIOXIDE / CHLORIDE / CHOLESTEROL / CREATINE PHOSPHOKINASE / CREATININE / GLUCOSE / LACTATE DEHYDROGENASE / LIPASE / PHOSPHORUS / POTASSIUM / SODIUM / TOTAL BILIRUBIN / TOTAL PROTEIN / URIC ACID: tissue Plasma
[1] = 80 mg/kg, 120 h, dose level Low, time 5 day
[2] = 338 mg/kg, 72 h, dose level High, time 3 day
[3] = 338 mg/kg, 120 h, dose level High, time 5 day

CC(C)(Oc1ccc(C2CCCc3ccccc32)cc1)C(=O)O (centres undefined) [NAFENOPIN]
ABSOLUTE BASOPHIL [1]: 0 CELLS/uL
ABSOLUTE EOSINOPHIL [1]: 0 CELLS/uL
ABSOLUTE LYMPHOCYTE [1]: 12561 CELLS/uL
ABSOLUTE MONOCYTE [1]: 516.67 CELLS/uL
ABSOLUTE SEGMENTED NEUTROPHIL [1]: 1089 CELLS/uL
BASOPHIL [1]: 0%
EOSINOPHIL [1]: 0%
ERYTHROCYTE COUNT [1]: 5.43 x10E6/uL
HEMATOCRIT [1]: 32.67%
HEMOGLOBIN [1]: 12.23 G/DL
LEUKOCYTE COUNT [1]: 14.17 x10E3/uL
LYMPHOCYTE [1]: 88.67%
MEAN CORPUSCULAR HEMOGLOBIN [1]: 22.57 pg
MEAN CORPUSCULAR HEMOGLOBIN CONCENTRATION [1]: 37.5 G/DL
MEAN CORPUSCULAR VOLUME [1]: 60.17 fL
MONOCYTE [1]: 3.67%
NEUTROPHIL [1]: 7.67%
NUCLEATED RED BLOOD CELLS [1]: 0 /100WBC
PLATELET COUNT [1]: 828.67 x10E3/uL
ALANINE AMINOTRANSFERASE [1]: 61.67 u/L
ALBUMIN [1]: 5.07 G/DL
ALKALINE PHOSPHATASE [1]: 578 u/L
ASPARTATE AMINOTRANSFERASE [1]: 85.33 u/L
BLOOD UREA NITROGEN [1]: 14.33 mg/dL
CARBON DIOXIDE [1]: 32 mmol/L
CHLORIDE [1]: 97 MEQ/L
CHOLESTEROL [1]: 65.33 mg/dL
CREATINE PHOSPHOKINASE [1]: 403.67 u/L
CREATININE [1]: 0.25 mg/dL
GLUCOSE [1]: 148.67 mg/dL
LACTATE DEHYDROGENASE [1]: 257.33 u/L
LIPASE [1]: 9.67 u/L
PHOSPHORUS [1]: 13.43 mg/dL
POTASSIUM [1]: 6.96 MEQ/L
SODIUM [1]: 142.07 MEQ/L
TOTAL BILIRUBIN [1]: 0.13 mg/dL
TOTAL PROTEIN [1]: 6.07 G/DL
URIC ACID [1]: 1.23 mg/dL
ABSOLUTE BASOPHIL [2]: 0 CELLS/uL
ABSOLUTE EOSINOPHIL [2]: 40.33 CELLS/uL
ABSOLUTE LYMPHOCYTE [2]: 10009.33 CELLS/uL
ABSOLUTE MONOCYTE [2]: 484 CELLS/uL
ABSOLUTE SEGMENTED NEUTROPHIL [2]: 1499.67 CELLS/uL
BASOPHIL [2]: 0%
EOSINOPHIL [2]: 0.33%
ERYTHROCYTE COUNT [2]: 5.41 x10E6/uL
HEMATOCRIT [2]: 32.97%
HEMOGLOBIN [2]: 12.87 G/DL
LEUKOCYTE COUNT [2]: 12.03 x10E3/uL
LYMPHOCYTE [2]: 83.33%
MEAN CORPUSCULAR HEMOGLOBIN [2]: 23.77 pg
MEAN CORPUSCULAR HEMOGLOBIN CONCENTRATION [2]: 39.03 G/DL
MEAN CORPUSCULAR VOLUME [2]: 60.93 fL
MONOCYTE [2]: 4%
NEUTROPHIL [2]: 12.33%
NUCLEATED RED BLOOD CELLS [2]: 0 /100WBC
PLATELET COUNT [2]: 1008 x10E3/uL
ALANINE AMINOTRANSFERASE [2]: 113 u/L
ALBUMIN [2]: 4.73 G/DL
ALKALINE PHOSPHATASE [2]: 921 u/L
ASPARTATE AMINOTRANSFERASE [2]: 143 u/L
BLOOD UREA NITROGEN [2]: 13.67 mg/dL
CARBON DIOXIDE [2]: 22 mmol/L
CHLORIDE [2]: 104 MEQ/L
CHOLESTEROL [2]: 59.67 mg/dL
CREATINE PHOSPHOKINASE [2]: 584.33 u/L
CREATININE [2]: 0.7 mg/dL
GLUCOSE [2]: 143.67 mg/dL
LACTATE DEHYDROGENASE [2]: 415.33 u/L
LIPASE [2]: 10 u/L
PHOSPHORUS [2]: 12.27 mg/dL
POTASSIUM [2]: 6.14 MEQ/L
SODIUM [2]: 143.63 MEQ/L
TOTAL BILIRUBIN [2]: 0.2 mg/dL
TOTAL PROTEIN [2]: 5.63 G/DL
URIC ACID [2]: 1.23 mg/dL
ABSOLUTE BASOPHIL [3]: 0 CELLS/uL
ABSOLUTE EOSINOPHIL [3]: 38 CELLS/uL
ABSOLUTE LYMPHOCYTE [3]: 11719.67 CELLS/uL
ABSOLUTE MONOCYTE [3]: 400 CELLS/uL
ABSOLUTE SEGMENTED NEUTROPHIL [3]: 1175.67 CELLS/uL
BASOPHIL [3]: 0%
EOSINOPHIL [3]: 0.33%
ERYTHROCYTE COUNT [3]: 5.3 x10E6/uL
HEMATOCRIT [3]: 30.47%
HEMOGLOBIN [3]: 11.43 G/DL
LEUKOCYTE COUNT [3]: 13.33 x10E3/uL
LYMPHOCYTE [3]: 88%
MEAN CORPUSCULAR HEMOGLOBIN [3]: 21.6 pg
MEAN CORPUSCULAR HEMOGLOBIN CONCENTRATION [3]: 37.53 G/DL
MEAN CORPUSCULAR VOLUME [3]: 57.53 fL
MONOCYTE [3]: 3%
NEUTROPHIL [3]: 8.67%
NUCLEATED RED BLOOD CELLS [3]: 0 /100WBC
PLATELET COUNT [3]: 850.67 x10E3/uL
ALANINE AMINOTRANSFERASE [3]: 87 u/L
ALBUMIN [3]: 4.73 G/DL
ALKALINE PHOSPHATASE [3]: 891.33 u/L
ASPARTATE AMINOTRANSFERASE [3]: 88.67 u/L
BLOOD UREA NITROGEN [3]: 12.67 mg/dL
CARBON DIOXIDE [3]: 29 mmol/L
CHLORIDE [3]: 98 MEQ/L
CHOLESTEROL [3]: 96.67 mg/dL
CREATINE PHOSPHOKINASE [3]: 209.67 u/L
CREATININE [3]: 0.65 mg/dL
GLUCOSE [3]: 129.67 mg/dL
LACTATE DEHYDROGENASE [3]: 216.67 u/L
LIPASE [3]: 10 u/L
PHOSPHORUS [3]: 12.7 mg/dL
POTASSIUM [3]: 6.55 MEQ/L
SODIUM [3]: 143.43 MEQ/L
TOTAL BILIRUBIN [3]: 0.23 mg/dL
TOTAL PROTEIN [3]: 5.67 G/DL
URIC ACID [3]: 1.3 mg/dL
